ChEMBL document CHEMBL1201862, “PubChem BioAssay data set” (2004)
Active and inactive are the calls of the source.

Experiments:
Leucine aminopeptidase = target: T1, Leucine aminopeptidase (Plasmodium falciparum 3D7, UniProt Q8IL11); experiment: P. falciparum M17LAP inhibitors, primary screen, biochemical, fluorogenic H-Leu-NHMec substrate, 1536-well (AID 1619); format: functional
T1 sequence (Q8IL11 whole entry): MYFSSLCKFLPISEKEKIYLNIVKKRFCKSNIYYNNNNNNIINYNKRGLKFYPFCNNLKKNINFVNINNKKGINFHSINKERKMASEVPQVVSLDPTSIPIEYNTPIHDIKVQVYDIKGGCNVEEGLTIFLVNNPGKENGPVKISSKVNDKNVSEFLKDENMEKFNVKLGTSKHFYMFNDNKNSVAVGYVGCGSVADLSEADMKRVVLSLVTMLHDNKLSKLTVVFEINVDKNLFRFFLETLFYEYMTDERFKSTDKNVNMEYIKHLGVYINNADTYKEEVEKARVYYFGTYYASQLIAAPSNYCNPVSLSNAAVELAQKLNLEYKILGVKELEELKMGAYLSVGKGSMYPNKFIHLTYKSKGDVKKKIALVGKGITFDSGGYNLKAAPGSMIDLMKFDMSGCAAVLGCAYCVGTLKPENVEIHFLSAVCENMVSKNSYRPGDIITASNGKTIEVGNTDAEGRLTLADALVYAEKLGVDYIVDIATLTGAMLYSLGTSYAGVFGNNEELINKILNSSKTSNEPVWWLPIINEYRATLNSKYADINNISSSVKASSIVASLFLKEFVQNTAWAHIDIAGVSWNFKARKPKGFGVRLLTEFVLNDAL

[1] = viability of uninfected HEp-2 cells – cell-based, HTS, cytotoxicity control for RSV inhibitor project, dose response (AID 2410); format: functional; conditions: human respiratory syncytial virus
[2] = target: T2, Voltage-gated N-type calcium channel alpha-1B subunit/Amyloid beta A4 precursor protein-binding family A member 1 (Homo sapiens, UniProt Q00975+Q02410); format: protein assay
[3] = target: T2, Voltage-gated N-type calcium channel alpha-1B subunit/Amyloid beta A4 precursor protein-binding family A member 1; format: protein assay; remark: listed apart in the source
BJ [4] = experiment: BJ-TERT-LT-ST fibroblast viability loss – cell-based, RAS-independent, luminescence, dose response (AID 1935); format: functional; conditions: Homo sapiens;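 also: BJ fibroblasts immortalized with TERT plus LT and ST oncogenes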
[5] = DRD fibroblast viability loss – cell-based, non-viral oncogenic, luminescence, dose response (AID 1934); format: functional; conditions: Homo sapiens
BJ [6] = experiment: BJ-TERT fibroblast viability loss – cell-based, RAS-independent, luminescence, dose response (AID 1933); format: functional; conditions: Homo sapiens
BJ [7] = experiment: cells; format: functional, cell-based; conditions: Homo sapiens
[8] = Luminescence Cell-Based Dose Retest to Confirm Inhibitors of Cancer Stem Cells. [Related pubchem assays (depositor defined):AID2717, AID2721]; format: functional; conditions: Homo sapiens
[9] = target: Glucose-6-phosphate 1-dehydrogenase (Homo sapiens, UniProt P11413); experiment: inhibition of Homo sapiens G6PD, dose series – biochemical, fluorescence, selectivity assay for P. falciparum G6PD inhibitor project, dose response (AID 504792); format: functional
[10] = blockers of bursicon-stimulated LGR2 cAMP reporter – cell-based, HEK293, CRE-luciferase reporter, cherry pick, set 2, dose response (AID 743343); format: functional;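 also: transfected cells were stimulated with diluted bursicon conditioned medium after compound addition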
[11] = A549 cell cytotoxicity, dose response, cytotoxicity control, plate reader, cherry-pick, antagonist series (AID 743412); format: functional, cell-based
[12] = blockade of melanocortin 4 receptor signaling – cell-based, plate reader, cherry pick, counter-screen for LGR2 antagonist project, dose response (AID 743444); format: functional;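 also: transfected HEK 293 cells stimulated with alpha-MSH peptide; potency of inhibitors of the alpha-MSH evoked signal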
[13] = target: T3, High affinity choline transporter 1 (Homo sapiens, UniProt Q9GZV3); experiment: human choline transporter blockers, potency – cell-based, 5-point CRC, membrane potential dye, dose response (AID 504840); format: functional
T3 sequence (Q9GZV3 whole entry): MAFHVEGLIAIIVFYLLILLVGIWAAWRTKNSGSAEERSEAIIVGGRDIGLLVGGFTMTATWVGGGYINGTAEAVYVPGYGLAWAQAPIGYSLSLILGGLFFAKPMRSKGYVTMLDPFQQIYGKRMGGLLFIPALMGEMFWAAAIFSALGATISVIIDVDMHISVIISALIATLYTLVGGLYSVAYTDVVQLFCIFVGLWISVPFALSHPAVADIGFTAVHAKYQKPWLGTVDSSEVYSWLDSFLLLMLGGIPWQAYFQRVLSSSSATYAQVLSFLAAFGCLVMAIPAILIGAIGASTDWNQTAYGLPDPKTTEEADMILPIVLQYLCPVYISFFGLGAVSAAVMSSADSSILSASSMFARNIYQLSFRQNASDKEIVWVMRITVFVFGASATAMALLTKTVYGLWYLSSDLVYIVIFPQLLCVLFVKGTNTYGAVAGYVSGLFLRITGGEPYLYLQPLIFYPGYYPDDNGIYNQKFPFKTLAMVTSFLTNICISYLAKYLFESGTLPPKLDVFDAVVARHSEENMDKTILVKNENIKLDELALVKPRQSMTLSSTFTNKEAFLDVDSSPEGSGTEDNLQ

[14] = target: T4, Polyadenylate-binding protein 1 (Homo sapiens, UniProt P11940); experiment: MLLE domain peptide-binding blockers, IC50 – biochemical, fluorescence polarization, FITC-PAM2 peptide, dose response (AID 602259); format: functional; conditions: read-out: IC50_Mean
[15] = target: Peroxisome proliferator-activated receptor gamma/Nuclear receptor coactivator 2 (Homo sapiens, UniProt P37231); experiment: (§1) TR-FRET dose response biochemical High Throughput Screening assay for agonists of the steroid receptor coactivator 2 (SRC-2) recruitment by the peroxisome proliferator-activated receptor gamma (PPAR gamma): non-selective agonists. [Related pubchem assays: 1297, 1032 ]; format: functional
[16] = target: Peroxisome proliferator-activated receptor gamma/Nuclear receptor coactivator 1 (Homo sapiens, UniProt P37231); experiment: as §1, with “1 (SRC-1)” for “2 (SRC-2)”, “assays (depositor defined):AID1300, AID1808, AID504735, AID631]” for “assays: 1297, 1032 ]”; format: protein assay
[17] = target: Peroxisome proliferator-activated receptor gamma/Nuclear receptor coactivator 3 (Homo sapiens, UniProt P37231); experiment: as §1, with “3 (SRC-3)” for “2 (SRC-2)”, “1301 (Confirmation screen.), 1048 (Primary screen.)]” for “1297, 1032 ]”; format: functional
[18] = target: T4, Polyadenylate-binding protein 1; experiment: MLLE binding blockers, Cy5 peptide tracer – biochemical, fluorescence polarization, Cy5-PAM2 peptide, secondary, miRNA deadenylation inhibitor project, dose response (AID 602260); format: functional; conditions: read-out: IC50_Mean
[19] = target: T5, Replicative DNA helicase DnaB (Mycobacterium tuberculosis, UniProt P9WMR3); experiment: DnaB intein splicing inhibitors, dose response, biochemical, cell-free fluorescence (AID 449749); format: functional
T5 sequence (P9WMR3 whole entry): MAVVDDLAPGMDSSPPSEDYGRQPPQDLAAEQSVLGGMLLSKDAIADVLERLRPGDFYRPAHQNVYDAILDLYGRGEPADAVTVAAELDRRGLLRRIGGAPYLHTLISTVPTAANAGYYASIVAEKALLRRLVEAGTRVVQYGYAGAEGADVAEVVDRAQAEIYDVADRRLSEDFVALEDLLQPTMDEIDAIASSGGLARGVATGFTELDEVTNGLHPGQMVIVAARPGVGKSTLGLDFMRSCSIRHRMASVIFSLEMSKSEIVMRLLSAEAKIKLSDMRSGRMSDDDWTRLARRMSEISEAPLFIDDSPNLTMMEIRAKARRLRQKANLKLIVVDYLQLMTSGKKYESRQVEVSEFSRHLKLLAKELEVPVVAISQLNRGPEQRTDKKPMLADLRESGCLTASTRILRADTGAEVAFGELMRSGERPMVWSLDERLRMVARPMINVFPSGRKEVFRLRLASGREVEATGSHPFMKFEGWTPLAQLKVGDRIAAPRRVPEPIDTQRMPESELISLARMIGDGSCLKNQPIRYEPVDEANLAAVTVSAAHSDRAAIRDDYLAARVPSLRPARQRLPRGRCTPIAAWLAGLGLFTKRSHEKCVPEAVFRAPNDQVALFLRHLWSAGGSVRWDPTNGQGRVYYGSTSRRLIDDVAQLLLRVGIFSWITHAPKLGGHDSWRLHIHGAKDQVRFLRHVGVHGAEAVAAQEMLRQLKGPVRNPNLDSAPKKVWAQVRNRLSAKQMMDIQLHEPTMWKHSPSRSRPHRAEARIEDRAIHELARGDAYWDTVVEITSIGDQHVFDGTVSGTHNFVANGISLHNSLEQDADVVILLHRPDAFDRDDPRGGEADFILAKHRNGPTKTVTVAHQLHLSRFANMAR

[20] = viability of PTEN-deleted HCT116 cells – cell-based, HCT116 PTEN knockout, dose response (AID 1047); format: functional;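 also: HCT116 colon tumor cells with PTEN knocked out; cells exposed to compound for 60 hours before readout; potency for loss of cell viability measured by luminescence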
cells = format: functional
[21] = viability of HCT116 lacking mutant beta-catenin – cell-based, human colon tumor, dose response (AID 1045); format: functional;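 also: HCT116 colon tumor cells with beta catenin knocked out; cells exposed to compound for 60 hours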
Protein RecA = target: T6, Protein RecA (Mycobacterium tuberculosis, UniProt P9WHJ3); experiment: Fluorescence Cell-Free Homogeneous Dose Retest to Identify Inhibitors of RecA-Intein Splicing Activity. [Related pubchem assays (depositor defined):AID2097, AID2223, AID489010, AID492950]; format: functional
T6 sequence (P9WHJ3 whole entry): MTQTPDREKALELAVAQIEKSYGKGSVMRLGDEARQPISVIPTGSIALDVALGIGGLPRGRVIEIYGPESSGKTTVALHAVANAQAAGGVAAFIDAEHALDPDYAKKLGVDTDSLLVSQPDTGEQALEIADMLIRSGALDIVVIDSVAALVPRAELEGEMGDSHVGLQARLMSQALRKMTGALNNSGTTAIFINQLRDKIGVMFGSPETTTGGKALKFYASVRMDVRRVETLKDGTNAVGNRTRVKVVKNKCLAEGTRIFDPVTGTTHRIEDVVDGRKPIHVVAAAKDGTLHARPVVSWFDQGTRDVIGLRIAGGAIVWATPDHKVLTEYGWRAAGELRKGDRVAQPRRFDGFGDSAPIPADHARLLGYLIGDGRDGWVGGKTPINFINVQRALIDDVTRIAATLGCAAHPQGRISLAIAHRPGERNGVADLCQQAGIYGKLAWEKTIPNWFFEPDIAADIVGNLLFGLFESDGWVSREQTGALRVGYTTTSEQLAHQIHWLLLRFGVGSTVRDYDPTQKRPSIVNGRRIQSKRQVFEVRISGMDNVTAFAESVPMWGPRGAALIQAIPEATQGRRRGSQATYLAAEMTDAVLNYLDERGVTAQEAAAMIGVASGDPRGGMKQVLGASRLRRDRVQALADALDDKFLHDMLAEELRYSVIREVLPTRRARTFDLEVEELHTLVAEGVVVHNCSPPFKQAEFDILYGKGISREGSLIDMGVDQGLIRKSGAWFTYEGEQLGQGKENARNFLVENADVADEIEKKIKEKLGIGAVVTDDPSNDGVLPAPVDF

[22] = THP-1 cell cytotoxicity, dose response, cytotoxicity control for non-replicating M. tuberculosis project (AID 489025); format: functional

T2 sequence (Q00975 whole entry): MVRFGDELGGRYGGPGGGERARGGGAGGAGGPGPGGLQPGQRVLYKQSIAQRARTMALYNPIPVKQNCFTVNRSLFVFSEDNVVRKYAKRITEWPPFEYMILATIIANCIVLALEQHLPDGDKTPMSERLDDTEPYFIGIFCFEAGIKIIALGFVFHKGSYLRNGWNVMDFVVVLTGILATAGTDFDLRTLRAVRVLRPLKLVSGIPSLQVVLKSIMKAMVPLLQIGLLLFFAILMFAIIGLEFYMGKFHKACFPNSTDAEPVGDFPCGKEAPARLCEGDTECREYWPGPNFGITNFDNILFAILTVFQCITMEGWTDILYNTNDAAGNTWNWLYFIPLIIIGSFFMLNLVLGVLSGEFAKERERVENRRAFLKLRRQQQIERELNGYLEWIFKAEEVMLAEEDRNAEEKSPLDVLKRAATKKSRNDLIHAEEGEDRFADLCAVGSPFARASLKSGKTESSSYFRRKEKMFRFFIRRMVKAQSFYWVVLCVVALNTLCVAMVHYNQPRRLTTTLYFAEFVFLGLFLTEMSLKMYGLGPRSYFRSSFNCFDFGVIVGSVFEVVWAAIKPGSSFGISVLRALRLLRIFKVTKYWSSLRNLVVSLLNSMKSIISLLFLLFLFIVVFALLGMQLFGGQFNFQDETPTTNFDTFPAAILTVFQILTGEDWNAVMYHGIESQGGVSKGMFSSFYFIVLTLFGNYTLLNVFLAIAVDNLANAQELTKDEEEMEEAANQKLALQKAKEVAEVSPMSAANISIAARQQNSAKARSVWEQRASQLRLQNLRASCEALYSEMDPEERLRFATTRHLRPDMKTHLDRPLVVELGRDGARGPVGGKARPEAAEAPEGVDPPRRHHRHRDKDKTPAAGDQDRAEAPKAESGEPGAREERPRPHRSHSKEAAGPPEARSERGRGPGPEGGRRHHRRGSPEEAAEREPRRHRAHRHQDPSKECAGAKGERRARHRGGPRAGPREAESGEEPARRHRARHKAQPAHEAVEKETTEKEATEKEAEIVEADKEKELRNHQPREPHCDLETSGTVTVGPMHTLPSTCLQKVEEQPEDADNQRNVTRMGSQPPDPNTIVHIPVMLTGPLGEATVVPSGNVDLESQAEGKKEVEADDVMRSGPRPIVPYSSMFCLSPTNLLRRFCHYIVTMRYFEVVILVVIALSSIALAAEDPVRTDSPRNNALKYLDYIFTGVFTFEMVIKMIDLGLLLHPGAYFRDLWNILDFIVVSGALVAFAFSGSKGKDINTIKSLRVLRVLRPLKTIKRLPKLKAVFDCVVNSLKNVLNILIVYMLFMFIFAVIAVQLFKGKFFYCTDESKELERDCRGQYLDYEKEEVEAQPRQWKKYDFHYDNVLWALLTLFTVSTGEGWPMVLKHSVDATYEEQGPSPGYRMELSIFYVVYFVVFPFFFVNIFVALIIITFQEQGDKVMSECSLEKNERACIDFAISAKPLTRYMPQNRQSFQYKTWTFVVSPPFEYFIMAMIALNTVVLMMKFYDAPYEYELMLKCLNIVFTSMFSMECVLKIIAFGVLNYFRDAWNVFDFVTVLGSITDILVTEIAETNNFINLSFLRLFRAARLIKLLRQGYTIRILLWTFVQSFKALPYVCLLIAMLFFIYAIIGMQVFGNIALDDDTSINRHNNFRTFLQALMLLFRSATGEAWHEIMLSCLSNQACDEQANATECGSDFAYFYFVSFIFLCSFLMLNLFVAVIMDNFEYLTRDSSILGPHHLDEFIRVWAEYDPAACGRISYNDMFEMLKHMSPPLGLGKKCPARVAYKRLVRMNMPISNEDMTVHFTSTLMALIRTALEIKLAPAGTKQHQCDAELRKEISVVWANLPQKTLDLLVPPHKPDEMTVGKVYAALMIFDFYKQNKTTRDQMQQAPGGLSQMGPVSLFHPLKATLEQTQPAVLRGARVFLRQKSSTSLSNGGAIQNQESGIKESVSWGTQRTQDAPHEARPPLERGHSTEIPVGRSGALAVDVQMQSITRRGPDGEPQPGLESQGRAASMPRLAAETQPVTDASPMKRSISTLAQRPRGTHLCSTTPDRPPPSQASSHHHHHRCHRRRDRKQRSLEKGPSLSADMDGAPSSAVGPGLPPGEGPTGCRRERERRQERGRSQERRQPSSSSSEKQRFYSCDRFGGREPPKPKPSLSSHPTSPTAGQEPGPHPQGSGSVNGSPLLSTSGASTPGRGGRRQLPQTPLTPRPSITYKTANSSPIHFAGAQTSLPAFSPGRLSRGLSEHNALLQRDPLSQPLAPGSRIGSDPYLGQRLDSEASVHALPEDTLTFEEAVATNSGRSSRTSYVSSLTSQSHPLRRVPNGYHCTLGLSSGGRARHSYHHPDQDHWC
T2 sequence (Q02410 whole entry): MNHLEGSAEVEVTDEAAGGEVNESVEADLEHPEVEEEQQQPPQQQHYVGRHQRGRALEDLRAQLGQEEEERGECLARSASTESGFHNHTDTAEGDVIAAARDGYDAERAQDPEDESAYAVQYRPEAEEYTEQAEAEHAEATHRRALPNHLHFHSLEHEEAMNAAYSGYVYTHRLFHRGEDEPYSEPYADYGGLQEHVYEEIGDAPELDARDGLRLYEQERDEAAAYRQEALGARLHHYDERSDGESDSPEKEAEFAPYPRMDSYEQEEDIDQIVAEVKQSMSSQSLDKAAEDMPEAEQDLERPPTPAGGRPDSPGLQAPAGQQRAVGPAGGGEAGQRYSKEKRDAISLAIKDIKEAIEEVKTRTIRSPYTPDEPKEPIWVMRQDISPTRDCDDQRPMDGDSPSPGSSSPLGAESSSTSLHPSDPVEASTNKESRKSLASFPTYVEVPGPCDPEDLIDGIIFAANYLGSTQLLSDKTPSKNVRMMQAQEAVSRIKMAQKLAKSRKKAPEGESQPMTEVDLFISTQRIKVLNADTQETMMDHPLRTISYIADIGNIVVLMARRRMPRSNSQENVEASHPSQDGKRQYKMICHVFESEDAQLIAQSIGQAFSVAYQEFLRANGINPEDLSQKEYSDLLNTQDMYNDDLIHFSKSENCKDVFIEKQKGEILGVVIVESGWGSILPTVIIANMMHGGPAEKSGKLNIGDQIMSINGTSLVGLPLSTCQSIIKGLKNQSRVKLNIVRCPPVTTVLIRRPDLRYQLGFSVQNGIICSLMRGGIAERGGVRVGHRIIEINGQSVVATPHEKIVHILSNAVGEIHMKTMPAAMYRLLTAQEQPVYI
T4 sequence (P11940 whole entry, the tested form may be a part): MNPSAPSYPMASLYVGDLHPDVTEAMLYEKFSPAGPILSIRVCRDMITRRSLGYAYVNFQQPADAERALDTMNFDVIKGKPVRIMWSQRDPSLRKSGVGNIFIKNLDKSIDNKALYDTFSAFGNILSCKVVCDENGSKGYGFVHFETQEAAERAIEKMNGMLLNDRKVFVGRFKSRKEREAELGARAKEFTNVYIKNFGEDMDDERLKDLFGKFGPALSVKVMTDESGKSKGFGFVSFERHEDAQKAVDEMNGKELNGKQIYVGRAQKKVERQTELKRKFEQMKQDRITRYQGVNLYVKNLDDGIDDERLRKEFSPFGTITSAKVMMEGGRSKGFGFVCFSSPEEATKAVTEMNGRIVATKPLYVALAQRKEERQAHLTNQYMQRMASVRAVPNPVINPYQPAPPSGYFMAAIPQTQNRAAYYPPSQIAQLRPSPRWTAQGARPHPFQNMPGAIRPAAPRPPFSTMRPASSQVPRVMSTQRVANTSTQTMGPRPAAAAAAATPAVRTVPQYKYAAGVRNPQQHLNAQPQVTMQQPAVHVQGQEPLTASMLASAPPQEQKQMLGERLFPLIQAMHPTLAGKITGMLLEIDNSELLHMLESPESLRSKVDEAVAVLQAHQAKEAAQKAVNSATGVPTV
Glucose-6-phosphate 1-dehydrogenase, sequence (P11413 whole entry): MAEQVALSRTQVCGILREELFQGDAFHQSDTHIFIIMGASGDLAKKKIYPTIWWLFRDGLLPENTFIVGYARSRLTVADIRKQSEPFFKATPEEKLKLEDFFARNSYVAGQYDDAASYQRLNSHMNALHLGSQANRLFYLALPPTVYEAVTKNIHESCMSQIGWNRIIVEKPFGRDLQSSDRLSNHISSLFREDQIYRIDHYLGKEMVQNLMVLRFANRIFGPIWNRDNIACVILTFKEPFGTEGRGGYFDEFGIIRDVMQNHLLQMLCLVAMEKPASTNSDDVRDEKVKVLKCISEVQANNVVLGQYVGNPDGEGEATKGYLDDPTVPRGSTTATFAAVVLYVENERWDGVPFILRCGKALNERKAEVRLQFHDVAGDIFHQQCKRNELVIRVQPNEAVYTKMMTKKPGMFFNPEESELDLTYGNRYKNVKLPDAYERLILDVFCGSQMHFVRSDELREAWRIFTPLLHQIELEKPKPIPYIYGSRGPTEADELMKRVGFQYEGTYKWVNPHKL

Which IC50 (Leucine aminopeptidase) does the source give for `Oc1ccc(/C=N/NC(=S)Nc2cccnc2)cc1O` here?
Its IC50 is 49.6 µM (active).

For `Clc1cc(Cl)cc(Nc2nc[nH]n2)c1`, which CC50 [1] is on record?
Its CC50 is 22.7 µM (active).

What about the IC50 (Leucine aminopeptidase) of the same molecule?
The IC50 was 23.3 µM (active).

Which results are given for `CCN(C(=O)CN1C(=O)S/C(=C\C=C\c2ccccc2)C1=O)C1CCS(=O)(=O)C1` (stereo not drawn)?
IC50 [2]: > 50 µM (inactive); IC50 [3]: > 56.8 µM (not active)

What does the source list for `CN(C)CCCNc1ccc(-c2cc(Nc3cccc(Cl)c3)ncn2)cn1`?
EC50 (BJ [4]): > 75 µM (not active); EC50 [5]: 22.6 µM (active); EC50 (BJ [6]): 14.1 µM (active); EC50 (BJ [7]): > 150 µM (not active); AC50 [8]: 4.54 µM (active)

Which IC50 [9] does the source give for `CSc1nnc(NC(=O)c2ccc3c(c2)OCO3)s1` here?
Its IC50 is 22.5 µM (inactive).

What about the AC50 [10] of the same molecule?
Its AC50 is 1.72 µM (active).

What about the AC50 [11] of the same molecule?
The AC50 was > 52 µM (inactive).

What about the AC50 [12] of the same molecule?
Its AC50 is 1.86 µM (active).

For `O=C(Nc1ccc(F)cc1)C1=CC(=O)N2CCN=C2S1`, which IC50 [2] is on record?
The IC50 was > 50 µM (inactive).

What about the IC50 [3] of the same molecule?
The IC50 was 10.7 µM (active).

For `O=S(=O)(c1ccccc1F)N1CCN(CCc2ccccc2)CC1`, which IC50 [13] is on record?
Its IC50 is 5.45 µM (active).

What does the source list for `Cc1sc(NC(=S)Nc2ccc(F)cc2)c(C(N)=O)c1C`?
IC50 [14]: > 66 µM (inactive); EC50 [15]: 9.42 µM (active); EC50 [16]: 9.36 µM (active); IC50 (Leucine aminopeptidase): 53.1 µM (active); EC50 [17]: > 79.4 µM (not active); IC50 [18]: > 66 µM (inactive)

With `Cc1cc(=O)oc2cc(NC(=O)c3cccc(Br)c3)ccc12` as the molecule, how does the IC50 [2] read?
Its IC50 is > 50 µM (inactive).

What about the IC50 [3] of the same molecule?
Its IC50 is 5.32 µM (active).

Which IC50 (Leucine aminopeptidase) does the source give for `CCOC(=O)C1CSC(CC(=O)Nc2ccc(OCC)cc2)C(=O)N1` (stereo not drawn) here?
Its IC50 is 11.4 µM (active).

Which AC50 [19] does the source give for `CC(=O)OCCNc1cc(SCc2ccco2)c2nonc2c1[N+](=O)[O-]` here?
Its AC50 is 8.4 µM (active).

What about the EC50 [20] of the same molecule?
Its EC50 is 23.7 µM (active).

And the IC50 (cells)?
Its IC50 is 5.86 µM (active).

What about the EC50 [21] of the same molecule?
Its EC50 is 17.6 µM (active).

And the EC50 (Protein RecA)?
Its EC50 is 2.73 µM (active).

What about the CC50 [22] of the same molecule?
Its CC50 is 30.1 µM (active).

For `O=C(O)CSc1nnc(CNc2cccc(C(F)(F)F)c2)n1Cc1ccco1`, which IC50 (Leucine aminopeptidase) is on record?
The IC50 was 48.8 µM (active).
